Data published in patent US8293786B2 (Alltranz Inc., priority 2007, dated 2012).

Key:
human abdominal skin = experiment: In vitro human skin permeation and skin disposition, flow-through diffusion cells (Example 1); assay type: in vitro ADME; conditions: for found in the skin disposition (tissue) samples: Example 1; for 36 h skin conc.: Table 14, in propylene glycol; for permeation through the skin: both the PG donor solution and gel formulation
Protocol: Flow through diffusion cells were used for the permeation studies. HEPES-buffered Hanks' balanced salts containing 40% (polyethylene glycol) PEG 400 with gentamicin was used for the receiver compartment. Donor solution was comprised of either 100% propylene glycol (PG) solution or a rubbed in gel formulation. […] Drug accumulation in the skin after a 24 or 36 h diffusion experiment was determined as μmol/g wet tissue weight.
The skin samples used in the following experiments were obtained from abdominal reduction surgery and dermatomed to a thickness of approximately 200 μm. The skin samples used herein were frozen at −20° C. for less than six months.
1 L of receiver fluid was prepared by measuring 1 L of nanopure water into a graduated cylinder. 90% of the water was added to an Erlenmeyer flask. Hanks' salts (1 bottle) were added to the water along with 5.96 g of HEPES and 0.35 g of sodium bicarbonate. The pH of the solution was adjusted with 1 N sodium hydroxide solution to pH 7.4. The remaining water was added and the receiver fluid was filtered through a 0.2μ filter (Millipore, Billerica, Mass.). 50 mg of gentamicin was added to the filtered receiver fluid and 400 mL of the receiver fluid was removed and replaced with 400 mL of PEG 400.
Two different formulations were used for charging the donor compartment. Drugs were made up in either 100% PG or a gel formulation. For the PG solution, approximately 50-120 mg of the appropriate drug was weighed into a glass silanized culture tube. The gel formulation resulted from the mixing of absolute ethanol, nanopure water, IPM, Carbopol® 980, 0.1 N aqueous sodium hydroxide solution and the respective drug.
Dermatomed skin harvested from abdominoplasty, stored at −20° C., was used for the experiments. A PermeGear flow-through (In-Line, Riegelsville, Pa.) diffusion cell system was used for the skin permeation studies.
Diffusion cells were kept at 32° C. with a circulating water bath. Human epidermal skin was arranged in the diffusion cell with stratum corneum (upper layer of skin) facing the donor compartment. Permeation area of the skin was 0.95 cm^2. Data was collected from a human skin donor with three to four diffusion cells per treatment.
Receiver solution was HEPES-buffered Hanks' balanced salts with gentamicin containing 40% PEG 400 at a pH of 7.4 and flow rate was adjusted to 0.8 mL/h. Each cell was charged with 0.050 mL of the respective drug formulation (donor solution) or with 0.035 mL of gel formulation which was rubbed into the skin for 15 sec with a Teflon coated rod. The formulation was applied to ensure complete coverage. Diffusion cells were covered with a cap for the duration of the study.
Samples were collected into scintillation vials in 3 h increments for either 24 h or 36 h. All the samples were stored at 4° C. until extracted. An aliquot (0.5 mL) of the diffusion sample was placed into a silanized HPLC vial and 0.5 mL of acetonitrile was added to the sample, capped and vortexed.
At the end of the experiment, the skin tissue was removed from the diffusion cell, rinsed with nanopure water, and blotted dry with a paper towel. The skin was tape stripped twice using book tape (Scotch™, 3M, St. Paul, Minn.) to remove drug formulation adhering to the tissue surface. The area of skin in contact with the drug was cut out, chopped up and placed in a pre-weighed scintillation vial. Ten mL of acetonitrile was added to the vial and drug was extracted from the skin by shaking at room temperature overnight. The following day a 0.1 mL aliquot was removed and diluted with an additional 0.9 mL of acetonitrile. The diluted sample was added to the silanized HPLC vial for analysis.
At the end of the experiment, a 0.01 mL aliquot of the PG donor solution was removed and added to a scintillation vial containing 10 mL of acetonitrile. The vials were vortexed and then sonicated for 15 min. An aliquot of 1 mL was removed and transferred into a silanized HPLC vial for analysis.

[1] = Plasma stability of cannabidiol prodrugs (bioconversion to parent drug); assay type: in vitro ADME; conditions: Table 20, di-prodrug in plasma; for % mono-prodrug at time (h): mono-prodrug formed
Protocol: An approximated 1 mg/mL stock solution of each prodrug was prepared in 100 μL of ethanol and 900 μL of acetonitrile. Ten (10) μL of stock was spiked into 1 mL of plasma and vortexed. The samples were kept sealed in an amber vial and samples were obtained to analyze for bioconversion to parent drug.

Structure (SMILES)	found in the skin disposition (tissue) samples (human abdominal skin)	36 h skin conc. (human abdominal skin; as applied compound (CBD or intact prodrug)) [µmol/g]	36 h skin conc. (human abdominal skin; prodrug applied, as total CBD equivalents) [µmol/g]	permeation through the skin (human abdominal skin)	% mono-prodrug at time (h) ([1]; 2 h) [%]	% mono-prodrug at time (h) ([1]; 20 h) [%]	% Di-prodrug at time (h) ([1]; 0 h) [%]	% Di-prodrug at time (h) ([1]; 2 h) [%]	% Di-prodrug at time (h) ([1]; 20 h) [%]
C=C(C)C1CCC(C)=CC1c1c(OC(=O)CCOCC)cc(CCCCC)cc1OC(=O)CCOCC (centres unmarked) [ALL00103]	Some intact prodrug was found in the skin samples but very little cannabidiol was detected	9.7 ± 1.0	9.7 ± 1.0	did not permeate (or were below LOD)					
C=C(C)C1CCC(C)=CC1c1c(OC(=O)NCC)cc(CCCCC)cc1OC(=O)NCC (centres unmarked) [ALL00104]	Some intact prodrug was found in the skin samples but very little cannabidiol was detected			did not permeate (or were below LOD)					
C=C(C)C1CCC(C)=CC1c1c(OC(=O)COCCOCCOC)cc(CCCCC)cc1OC(=O)COCCOCCOC (centres unmarked) [ALL00141, CBD bis(2-[2-(2-methoxyethoxy)ethoxy]acetate)]					1	2	98	71	46
